The text below walks through data of article PMC6263544, “Second-generation pterocarpanquinones: synthesis and antileishmanial activity” (The Journal of Venomous Animals and Toxins Including …, 2018).

The assay deals with promastigotes of L. infantum. In words: Mitochondrial membrane potential (ΔΨm) test (rhodamine 123, flow cytometry). Conditions: 20 μM (positive control), Rh123, IV = (MT − MC)/MC, mean ± SD. The format is cell-based, Leishmania infantum. On the procedure: To determine the effect of pterocarpanquinones 2a-f on the ΔΨm, promastigotes of L. infantum (5 × 10^6 cells/mL) were incubated in the presence of 0–5 μM of derivatives at 26 °C. After 4 h, the parasites were incubated for 15 min with 10 μg/mL rhodamine 123 (Rh123) (Sigma-Aldrich). Data acquisition of 10,000 events and analysis were performed using the flow cytometer FACSCalibur (Becton-Dickinson, Rutherford, NJ, USA). Alteration in ΔΨm was quantified using an index of variation (IV) obtained by the eq. IV = (MT − MC)/MC [24], where MT is the median of the fluorescence of Rh123 for treated parasites and MC is the median of the fluorescence of the control parasites. Negative IV values correspond to depolarization of the mitochondrial membrane. The FCCP (Carbonyl cyanide-p-Trifluoromethoxyphenylhydrazone) 20 μM was used as positive control.
A general note: In flow cytometry, cells or beads pass a laser one at a time.

On to `N#CC(C#N)=NNc1ccc(OC(F)(F)F)cc1` [FCCP, Carbonyl cyanide-p-Trifluoromethoxyphenylhydrazone, reference compound], for which the “Δѱm index of variation (IV)” value is recorded as −0.727 ± 0.01.
